Results: ChEMBL document CHEMBL1133063, “Nonbenzamidine compounds as selective factor Xa inhibitors” (Bioorg Med Chem Lett, 2000)

Experiments:
Coagulation factor X = Coagulation factor X (Homo sapiens, UniProt P00742); assay: Compound was evaluated for the inhibitory activity against Coagulation factor X
[1] = biological target: Vitamin K-dependent protein C (Homo sapiens, UniProt P04070); assay: Compound was evaluated for the inhibitory activity against Activated protein C
Plasminogen = Plasminogen (Homo sapiens, UniProt P00747); assay: Compound was evaluated for the inhibitory activity against plasmin
Plasminogen, sequence (P00747 97-580 limits assumed): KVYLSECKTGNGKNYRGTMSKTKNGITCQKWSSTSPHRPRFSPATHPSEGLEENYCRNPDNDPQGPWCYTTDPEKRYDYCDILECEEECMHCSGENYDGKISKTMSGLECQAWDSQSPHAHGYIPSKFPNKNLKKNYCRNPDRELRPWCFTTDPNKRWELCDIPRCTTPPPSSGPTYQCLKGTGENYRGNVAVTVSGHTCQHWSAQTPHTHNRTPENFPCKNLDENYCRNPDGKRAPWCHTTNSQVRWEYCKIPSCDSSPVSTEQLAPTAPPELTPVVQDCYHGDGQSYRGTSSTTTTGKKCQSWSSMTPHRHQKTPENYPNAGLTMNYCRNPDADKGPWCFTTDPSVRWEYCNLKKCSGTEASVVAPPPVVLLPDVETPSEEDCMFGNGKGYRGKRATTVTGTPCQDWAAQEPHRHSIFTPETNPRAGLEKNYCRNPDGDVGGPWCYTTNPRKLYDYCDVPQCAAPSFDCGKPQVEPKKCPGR
Plasminogen, sequence (P00747 581-810 limits assumed): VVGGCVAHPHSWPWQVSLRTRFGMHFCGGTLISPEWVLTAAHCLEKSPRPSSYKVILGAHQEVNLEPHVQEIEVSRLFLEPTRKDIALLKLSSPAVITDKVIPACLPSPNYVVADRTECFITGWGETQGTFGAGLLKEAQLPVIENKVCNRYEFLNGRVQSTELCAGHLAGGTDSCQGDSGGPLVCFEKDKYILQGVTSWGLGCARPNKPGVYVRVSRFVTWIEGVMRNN

Prothrombin = Prothrombin (Homo sapiens, UniProt P00734); assay: Compound was evaluated for the inhibitory activity against thrombin
Serine protease 1 [2] = biological target: T1, Serine protease 1 (Homo sapiens, UniProt P07477); assay: Compound was evaluated for the inhibitory activity against trypsin
T1 sequence (P07477 whole entry): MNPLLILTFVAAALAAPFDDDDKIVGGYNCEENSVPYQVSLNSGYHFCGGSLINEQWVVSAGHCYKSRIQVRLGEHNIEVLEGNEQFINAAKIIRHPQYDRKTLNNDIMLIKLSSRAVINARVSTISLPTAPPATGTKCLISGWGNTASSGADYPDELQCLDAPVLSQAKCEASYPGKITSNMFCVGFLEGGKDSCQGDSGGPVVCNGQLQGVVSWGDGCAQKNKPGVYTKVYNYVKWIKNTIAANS

[3] = biological target: T2, Tissue-type plasminogen activator (Homo sapiens, UniProt P00750); assay: Compound was evaluated for the inhibitory activity against t-PA
T2 sequence (P00750 whole entry): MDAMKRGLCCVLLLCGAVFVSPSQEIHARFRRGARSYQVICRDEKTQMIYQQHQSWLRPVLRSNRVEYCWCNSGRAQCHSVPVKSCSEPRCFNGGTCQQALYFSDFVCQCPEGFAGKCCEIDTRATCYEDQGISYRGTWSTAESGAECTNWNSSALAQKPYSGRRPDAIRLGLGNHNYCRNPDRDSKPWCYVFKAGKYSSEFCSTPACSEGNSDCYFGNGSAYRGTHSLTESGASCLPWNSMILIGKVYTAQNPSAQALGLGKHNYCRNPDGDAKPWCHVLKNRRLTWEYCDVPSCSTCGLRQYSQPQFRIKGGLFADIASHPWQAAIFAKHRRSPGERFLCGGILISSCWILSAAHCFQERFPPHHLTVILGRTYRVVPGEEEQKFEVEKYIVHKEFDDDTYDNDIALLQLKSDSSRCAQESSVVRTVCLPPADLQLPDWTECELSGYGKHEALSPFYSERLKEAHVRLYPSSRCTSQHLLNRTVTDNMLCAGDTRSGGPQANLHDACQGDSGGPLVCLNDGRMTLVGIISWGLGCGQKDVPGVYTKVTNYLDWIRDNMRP

Serine protease 1 [4] = biological target: T1, Serine protease 1; assay: Compound was evaluated for the inhibitory activity against trypsin.
[5] = biological target: T2, Tissue-type plasminogen activator; assay: Compound was evaluated for the inhibitory activity against t-PA.

Coagulation factor X, sequence (P00742 41-179 limits assumed): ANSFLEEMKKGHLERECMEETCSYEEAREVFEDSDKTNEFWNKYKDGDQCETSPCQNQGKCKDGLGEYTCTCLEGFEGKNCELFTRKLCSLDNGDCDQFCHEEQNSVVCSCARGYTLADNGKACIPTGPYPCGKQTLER
Coagulation factor X, sequence (P00742 235-488 limits assumed): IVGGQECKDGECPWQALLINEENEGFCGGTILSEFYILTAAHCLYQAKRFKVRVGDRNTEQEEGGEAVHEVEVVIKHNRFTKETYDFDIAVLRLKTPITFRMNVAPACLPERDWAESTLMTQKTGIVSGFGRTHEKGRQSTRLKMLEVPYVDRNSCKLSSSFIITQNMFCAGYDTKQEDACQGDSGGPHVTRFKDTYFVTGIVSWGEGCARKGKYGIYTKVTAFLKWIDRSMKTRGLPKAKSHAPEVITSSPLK
Vitamin K-dependent protein C, sequence (P04070 43-197 limits assumed): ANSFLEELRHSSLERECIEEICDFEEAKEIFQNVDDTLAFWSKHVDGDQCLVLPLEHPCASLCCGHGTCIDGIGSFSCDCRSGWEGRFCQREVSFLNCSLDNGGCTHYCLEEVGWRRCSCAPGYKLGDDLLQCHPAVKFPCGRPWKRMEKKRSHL
Vitamin K-dependent protein C, sequence (P04070 212-461 limits assumed): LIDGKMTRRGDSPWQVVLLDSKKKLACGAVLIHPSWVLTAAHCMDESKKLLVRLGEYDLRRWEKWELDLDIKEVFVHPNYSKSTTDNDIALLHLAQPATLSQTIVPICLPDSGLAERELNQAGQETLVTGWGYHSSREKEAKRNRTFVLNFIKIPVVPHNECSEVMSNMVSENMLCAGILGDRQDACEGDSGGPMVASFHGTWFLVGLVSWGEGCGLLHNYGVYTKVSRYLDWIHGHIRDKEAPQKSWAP

Row | Structure (SMILES) | Ki (Coagulation factor X) | further results
1 | O=C(CN1CCN(S(=O)(=O)c2cc3ccc(Cl)cc3s2)CC1=O)NCc1cccnc1 | > 1200 nM | –
2 | O=C(CN1CCN(S(=O)(=O)c2cc3ccc(Cl)cc3s2)CC1=O)NCCc1ccccn1 | 140 nM | –
3 | Cc1ncsc1CCNC(=O)CN1CCN(S(=O)(=O)c2cc3ccc(Cl)cc3s2)CC1=O | 270 nM | –
4 | CN(C(=O)CN1CCN(S(=O)(=O)c2cc3ccc(Cl)cc3s2)CC1=O)c1ccncc1 | > 1200 nM | –
5 | O=C(CN1CCN(S(=O)(=O)c2cc3ccc(Cl)cc3s2)CC1=O)Nc1ccncn1 | 97 nM | –
6 | Cc1[nH]cnc1CCNC(=O)CN1CCN(S(=O)(=O)c2cc3ccc(Cl)cc3s2)CC1=O | 340 nM | –
7 | COC(=O)[C@H](Cc1c[nH]cn1)NC(=O)CN1CCN(S(=O)(=O)c2cc3ccc(Cl)cc3s2)CC1=O | > 1200 nM | –
8 | O=C(CN1CCN(S(=O)(=O)c2cc3ccc(Cl)cc3s2)CC1=O)NCCc1cnc[nH]1 | 21 nM | Ki [1]: > 18000 nM; Ki (Plasminogen): > 7300 nM; Ki (Prothrombin): > 4000 nM; Ki (Serine protease 1 [2]): > 2900 nM; Ki [3]: > 8700 nM
9 | O=C(CN1CCN(S(=O)(=O)c2cc3ccc(Cl)cc3s2)CC1=O)Nc1ccncc1 | 170 nM | –
10 | Cn1cncc1CCNC(=O)CN1CCN(S(=O)(=O)c2cc3ccc(Cl)cc3s2)CC1=O | 12 nM | Ki [1]: > 18000 nM; Ki (Plasminogen): > 7300 nM; Ki (Prothrombin): > 4000 nM; Ki (Serine protease 1 [4]): > 2900 nM; Ki [5]: > 8700 nM
11 | Cn1cccc1CCNC(=O)CN1CCN(S(=O)(=O)c2cc3ccc(Cl)cc3s2)CC1=O | > 1200 nM | –
12 | Cn1cnc(CCNC(=O)CN2CCN(S(=O)(=O)c3cc4ccc(Cl)cc4s3)CC2=O)c1 | 430 nM | –
13 | O=C(CN1CCN(S(=O)(=O)c2cc3ccc(Cl)cc3s2)CC1=O)NCCc1ccncc1 | 59 nM | –
14 | O=C(CN1CCN(S(=O)(=O)c2cc3ccc(Cl)cc3s2)CC1=O)Nc1ccccc1 | > 1200 nM | –
15 | O=C(CN1CCN(S(=O)(=O)c2cc3ccc(Cl)cc3s2)CC1=O)NCCc1c[nH]c(S)n1 | 620 nM | –
16 | O=C(CN1CCN(S(=O)(=O)c2cc3ccc(Cl)cc3s2)CC1=O)NCCn1ccnc1 | > 1200 nM | –
17 | O=C(CN1CCN(S(=O)(=O)c2cc3ccc(Cl)cc3s2)CC1=O)NCCc1cscn1 | 160 nM | –
18 | O=C(CN1CCN(S(=O)(=O)c2cc3ccc(Cl)cc3s2)CC1=O)Nc1cccnc1 | > 1200 nM | –
19 | O=C(CN1CCN(S(=O)(=O)c2cc3ccc(Cl)cc3s2)CC1=O)NCCc1cccnc1 | 250 nM | –
20 | COC(=O)[C@@H](Cc1cnc[nH]1)NC(=O)CN1CCN(S(=O)(=O)c2cc3ccc(Cl)cc3s2)CC1=O | > 1200 nM | –
21 | O=C(CN1CCN(S(=O)(=O)c2cc3ccc(Cl)cc3s2)CC1=O)NCCCn1ccnc1 | > 1200 nM | –
22 | Nc1cc(CCNC(=O)CN2CCN(S(=O)(=O)c3cc4ccc(Cl)cc4s3)CC2=O)ccn1 | 140 nM | –
23 | Nc1nc(CCNC(=O)CN2CCN(S(=O)(=O)c3cc4ccc(Cl)cc4s3)CC2=O)cs1 | 620 nM | –
24 | O=C(CN1CCN(S(=O)(=O)c2cc3ccc(Cl)cc3s2)CC1=O)NC1CCNCC1 | > 1200 nM | –
